Experimental data reported in US12590322B2, “Devices and methods for mitochondria replacement and for generating cellular therapeutics” (NanoCav, LLC, priority 2018, dated 2026).

Assays:
[1] = system: BJ cells; experiment: mtDNA depletion by ddC in BJ primary fibroblasts, qPCR verification; format: cell-based, human; details: for mtDNA levels, % of initial untreated levels: 2.5 μM or 5 μM ddC
Description: FIGS. 11A-11B show generation of mtDNA depleted primary fibroblast lines in BJ cells. FIG. 11A is a bar chart showing that a minimum concentration of 2.5 μM of 2′,3′ dideoxycytidine (ddC), a reverse transcriptase inhibitor, was required to deplete mtDNA to below 5% of the original level, three weeks from initiation of treatment. […] FIG. 11B is a line plot showing the information of FIG. 11A.
(§1) A 1000× stock of 2′,3′-dideoxycytidine (ddC, Sigma, Cat. #D5782) was prepared in water. BJ, ADF, and NDF cells cultured in complete media with 50 µg/ml uridine were added ddC to an appropriate final concentration. Cells were passaged every 3-4 d and fresh ddC was added over the course of 3 weeks. After ddC treatment, total DNA was extracted (Qiagen, Cat. #69504) and mtDNA quantified using SYBR Select Master Mix for CFX (Life Technologies, Cat. #4472942). mtDNA-encoded ND1 was probed with the following primers: forward: […] (SEQ ID NO: 1); reverse: […] (SEQ ID NO: 2). mtDNA levels were normalized to nuclear-encoded GAPDH using the following primers: forward: […] (SEQ ID NO: 3); reverse: […] (SEQ ID NO: 4). qPCR was run on a BioRad CFX Thermal Cycler using the following protocol: 1) 50° C. for 2 min, 2) 95° C. for 2 min, 3) 40 cycles-95° C. for 10 s and 60° C. for 45 s. Samples were compared by calculating ΔΔCT and fold differences.

[2] = system: Adult and neonatal human dermal fibroblast (HDF) cells; experiment: mtDNA depletion by ddC in human dermal fibroblasts; format: cell-based; details: 5 μM ddC, after sixteen days
Source text: FIGS. 12A-12C show generation of mtDNA depleted human dermal fibroblasts cells. […] 143 Rho Null (lacking mtDNA) and a control are also shown. […] GAPDH expression, used as a reference gene, was also shown in adult and neonatal human dermal fibroblast (HDF) cells. FIG. 12B is a table showing depletion of mtDNA in HDF adult and HDF neonatal cells at days sixteen and thirty. FIG. 12C is a line plot showing the data of FIG. 12B.
as §1

[3] = system: BJs; experiment: Mutation signature comparison of ddC-treated BJs vs BJ parent, 30X whole genome sequencing; format: cell-based, human; details: for # SNVs / % of Total: 5 μM ddC treated BJs vs BJ parent
Description: A comparison of mutation signatures between 5 μM-ddC treated BJs and the BJ parent with 30× whole genome sequencing.

[4] = 5 μM ddC-treated BJs vs. BJ parent
[5] = ddC-treated cells, whole genome sequencing

Mutation rate [3, 4]: 0.6/MB
Non-synonymous mutations [3, 4]: 26
# SNVs ([3]; Signature 5): 2,230
% of Total ([3]; Signature 5): 42.0%
# SNVs ([3]; Signature 8): 873
% of Total ([3]; Signature 8): 16.0%
# SNVs ([3]; Signature 9): 854
% of Total ([3]; Signature 9): 16.0%
# SNVs ([3]; Signature 16): 200
% of Total ([3]; Signature 16): 4.0%
# SNVs ([3]; Signature 18): 471
% of Total ([3]; Signature 18): 9.0%
abundance of non-synonymous mutations [3, 5]: low abundance
changes in DNA copy number [3, 5]: no changes in DNA copy number
chromosomal breaks [3, 5]: no chromosomal breaks
Compound: Nc1ccn([C@H]2CC[C@@H](CO)O2)c(=O)n1 [ddC, 2′,3′-dideoxycytidine]
mtDNA levels, % of initial untreated levels ([1]; three weeks from initiation of treatment): below 0.5%
mtDNA levels, % of initial untreated levels ([1]; two weeks): below 2%
minimum concentration required to deplete mtDNA to below 5% of the original level ([1]; BJ cells, three weeks from initiation of treatment): 2.5 µM
mtDNA depletion [2]: mtDNA depletion
